In ChEMBL document CHEMBL1131952, “Synthesis of tetrasubstituted bicyclo[3.2.1]octenes as potential inhibitors of influenza virus sialidase” (Bioorg Med Chem Lett, 1999):

Legend:
Influenza A virus = assay: Inhibitory activity against sialidase of influenza A; format: functional, organism-based
Influenza B virus = assay: Inhibitory activity against sialidase of influenza B; format: functional, organism-based

| SMILES | IC50 (Influenza A virus) | IC50 (Influenza B virus) |
| --- | --- | --- |
| CC(=O)N[C@H]1[C@H]([C@H](O)[C@H](O)CO)OC(C(=O)O)=C[C@@H]1O [NEU5AC2EN] | 2.8 µM | 3 µM |
| CCC(CC)O[C@@H]1C=C(C(=O)O)[C@@H]2CC[C@@]1(NC(C)=O)[C@H]2O | 80 µM | 340 µM |
| CCC(CC)O[C@@H]1C=C(C(=O)O)[C@@H]2CC[C@@]1(C(=O)O)[C@H]2O | > 670 µM | > 670 µM |
| CCC(CC)O[C@@H]1C=C(C(=O)O)[C@@H]2CC[C@@]1(C(=O)OC)[C@H]2O | 99 µM | 83 µM |
